Results published in patent US6562865B1, “Composition comprising a tramadol material and an anticonvulsant drug” (Ortho-McNeil Pharmaceutical, Inc., priority 1999, dated 2003).
Like-named read-outs stand apart in the source and are kept apart here.

Legend:
[1] = test system: hot plate latency response in mice; test: Antinociceptive effect in the 48° C. Mouse Hot Plate Model; format: in vivo; settings: for % Maximal Possible Effect: 1.5 hours
Procedure: Mice were placed on a heated surface (48° C.) and the time interval (seconds) between placement and a shaking, licking, or tucking of the hind paw was recorded as the predrug latency response. This same procedure was repeated at various times after the test drug was administered p.o., 10 mL/kg.
The 48° C. Mouse Hot Plate was used to calculate the % maximal possible effect (% MPE) according to the formula: [formula]
The analysis of possible synergistic effect at each fixed ratio was determined as described by Tallarida, et al., above.

[2] = test system: mechanical (tactile) allodynia in Chung Model rats; test: Antiallodynic effect in the Chung Model (L5 spinal nerve ligation, paw withdrawal threshold with von Frey filaments); settings: for ED50: Rattus norvegicus, po, read-out: ED50 (SEM) of drug alone
Procedure: The antiallodynic effect of the composition of the present invention in the Chung Model is expressed in % MPE (Maximum Possible Effect).
Pathogen-free, male albino Sprague-Dawley rats, 200 g, were purchased from Harlan Industries (Indianapolis, Ind.) and maintained on a 12-h light/dark cycle (lights on at 06:00 h) in a climate-controlled room with food and water available ad libitum.
The rats were anesthetized with isoflurane inhalant anesthesia. The left lumbar spinal nerve at the level of L5 was tightly ligated (4-0 silk suture) distal to the dorsal root ganglion and prior to entrance into the sciatic nerve, as described by Kim and Chung. The incisions were closed and the rats were allowed to recover under conditions described above. This procedure results in mechanical allodynia in the left hind paw. The sham operation, when performed, consisted of a similar surgical procedure lacking only the final ligation of the spinal nerve. Mechanical (tactile) allodynia was assessed by recording the pressure at which the affected paw (ipsilateral to the site of nerve injury) was withdrawn from graded stimuli (von Frey filaments ranging from 4.0 to 148.1 mN) applied perpendicularly to the plantar surface of the paw (between the footpads) through wire-mesh observation cages. A paw withdrawal threshold (PWT) was determined by sequentially increasing and decreasing the stimulus strength and analyzing withdrawal data using a Dixon non-parametric test (Chaplan, et al). Normal rats, sham operated rats, and the contralateral paw of L5 ligated rats withstand at least 148.1 mN (equivalent to 15 g) of pressure without responding.
The dosing materials were all prepared in the vehicle, a suspension of 0.5% hydroxypropyl methylcellulose in distilled water; drug weights were calculated as the free base. The tramadol solution was prepared first, and the appropriate volume of this solution was added to a neat amount of the anticonvulsant to give the final dosing suspension. Drug weights were calculated as the free base, and the ratios used were based on the respective ED50 values of tramadol and the anticonvulsant. The necessary doses for each ratio were prepared separately and dosed orally in a volume of 10 mL/kg per rat.
The Chung Model rats were all dosed orally with the composition comprising a combination of tramadol hydrochloride (calculated as the base) and the anticonvulsant drug (calculated as the base) or the composition of each agent separately dissolved in distilled water or dissolved in a suspension of 0.5% hydroxypropyl methylcellulose in distilled water. The dosing volume was 10 mL/kg.
The rats were intubated with various doses of tramadol hydrochloride alone, anticonvulsant drug alone, combined doses of tramadol hydrochloride and anticonvulsant or vehicle such as distilled water or a suspension of 0.5% hydroxypropyl methylcellulose in distilled water.
Within a certain time after the oral administration of tramadol hydrochloride alone, the anticonvulsant drug alone, the composition comprising a combination of tramadol hydrochloride and the anticonvulsant drug or vehicle alone, the PWT test was commenced. Each rat was used in the evaluation of only a single dose-ratio.
The analysis of possible synergistic effect for the compositions at each fixed ratio was determined (R. J. Tallarida, et al., Life Sci., 1989, 45, 947). This procedure involves the determination of the total amount in the mixture that is required to produce a specified synergistic antiallodynic effect at the 50% dose level (that is, the ED50mix or Zmix) and the corresponding total amount that would be expected under simple additivity (ED50add or Zadd). Where it is established that Zmix<Zadd for a specific fixed-ratio, then that composition has a synergistic antiallodynic effect. Both the quantities ED50mix and ED50add are random variables.

[3] = drug alone 30 mg/kg p.o., 1 hour
[4] = drug alone 50 mg/kg p.o., 2 hours
[5] = drug alone 60 mg/kg p.o., 1 hour
[6] = drug alone 75 mg/kg p.o., 2 hours
[7] = drug alone 90 mg/kg p.o., 1 hour
[8] = drug alone 100 mg/kg p.o., 2 hours
[9] = drug alone 125 mg/kg p.o., 2 hours
[10] = drug alone 150 mg/kg p.o., 2 hours
[11] = drug alone 250 mg/kg p.o., 2 hours
[12] = drug alone 500 mg/kg p.o., 2 hours
[13] = drug alone 25 mg/kg p.o., 2 hours

SMILES	% Maximal Possible Effect ([1]; drug alone 10 mg/kg p.o.) [%]	% Maximal Possible Effect ([1]; drug alone 30 mg/kg p.o.) [%]	ED50 ([2]; 1 h) [mg/kg]	ED50 ([2]; 2 h) [mg/kg]	% MPE [2, 3] [% MPE]	% MPE [2, 4] [% MPE]	% MPE [2, 5] [% MPE]	% MPE [2, 6] [% MPE]	% MPE [2, 7] [% MPE]	% MPE [2, 8] [% MPE]	% MPE [2, 9] [% MPE]	% MPE [2, 10] [% MPE]	% MPE [2, 11] [% MPE]	% MPE [2, 12] [% MPE]	% MPE [2, 13] [% MPE]	also measured
COc1cccc(C2(O)CCCCC2CN(C)C)c1 (single isomer, unassigned) [Tramadol, (1R,2R or 1S,2S)-2-[(dimethylamino)methyl]-1-(3-methoxyphenyl)cyclohexanol]	5.83	37.74	48.6	94.5	25.70	3.77	40.96	20.62	73.61	45.38	74.29	100	–	–	–	ED50 ([1]; Mus musculus, po, 1.5 h, p.o., 48° C. hot plate, read-out: ED50 (SEM) at 1.5 Hours): 35.1 mg/kg; % Maximal Possible Effect ([1]; drug alone 100 mg/kg p.o.): 86.62%; % Maximal Possible Effect ([1]; drug alone 300 mg/kg p.o.): 100%; antinociceptive effect in dose-response study ([1]; p.o., 48° C. hot plate): dose-dependent antinociceptive effect; antinociceptive effect at the higher doses ([1]; p.o., 48° C. hot plate, higher doses): Full antinociceptive effect; % MPE ([2]; drug alone 10 mg/kg p.o., 1 hour): 16.79 % MPE; % MPE ([2]; drug alone 120 mg/kg p.o., 1 hour): 84.05 % MPE
NCC1(CC(=O)O)CCCCC1 [Gabapentin]	–	–	–	440	–	–	–	–	–	7.31	–	–	15.62	54.26	–	% MPE ([2]; drug alone 750 mg/kg p.o., 2 hours): 67.95 % MPE; % MPE ([2]; drug alone 1000 mg/kg p.o., 2 hours): 85.34 % MPE
CC1(C)O[C@@H]2[C@@H](CO[C@@]3(COS(N)(=O)=O)OC(C)(C)O[C@@H]23)O1 [Topiramate, 2,3,4,5-bis-O-(1-methylethylidene)-β-D-fructopyranose sulfamates]	0.82	9.71	–	98	–	26.58	–	–	–	56.42	–	–	76.51	94.38	11.54	–
Nc1nnc(-c2cccc(Cl)c2Cl)c(N)n1 [Lamotrigine]	–	–	–	75.5	–	21.95	–	48.69	–	–	75.09	83.51	–	–	5.48	–
NC(=O)OC[C@@H](O)c1ccccc1Cl [RWJ-333369, 1,2-ethanediol, 1-(2-chlorophenyl)-, 2-carbamate, (S)-]	–	–	77.4	–	5.57	–	30.43	–	57.01	–	–	–	–	–	–	% MPE ([2]; drug alone 45 mg/kg p.o., 1 hour): 23.01 % MPE; % MPE ([2]; drug alone 75 mg/kg p.o., 1 hour): 54.54 % MPE
